Assay results as given in patent publication US9663508B2, “Biaryl acyl-sulfonamide compounds as sodium channel inhibitors” (AMGEN INC., priority 2013, dated 2017).

Each molecule was assayed against human Nav1.7 (Homo sapiens (Human), UniProt Q15858) (assay: Nav 1.7 in vitro PatchXpress (PX) assay). Conditions: not given.
Type: cell-based

human Nav1.7, sequence (Q15858 whole entry): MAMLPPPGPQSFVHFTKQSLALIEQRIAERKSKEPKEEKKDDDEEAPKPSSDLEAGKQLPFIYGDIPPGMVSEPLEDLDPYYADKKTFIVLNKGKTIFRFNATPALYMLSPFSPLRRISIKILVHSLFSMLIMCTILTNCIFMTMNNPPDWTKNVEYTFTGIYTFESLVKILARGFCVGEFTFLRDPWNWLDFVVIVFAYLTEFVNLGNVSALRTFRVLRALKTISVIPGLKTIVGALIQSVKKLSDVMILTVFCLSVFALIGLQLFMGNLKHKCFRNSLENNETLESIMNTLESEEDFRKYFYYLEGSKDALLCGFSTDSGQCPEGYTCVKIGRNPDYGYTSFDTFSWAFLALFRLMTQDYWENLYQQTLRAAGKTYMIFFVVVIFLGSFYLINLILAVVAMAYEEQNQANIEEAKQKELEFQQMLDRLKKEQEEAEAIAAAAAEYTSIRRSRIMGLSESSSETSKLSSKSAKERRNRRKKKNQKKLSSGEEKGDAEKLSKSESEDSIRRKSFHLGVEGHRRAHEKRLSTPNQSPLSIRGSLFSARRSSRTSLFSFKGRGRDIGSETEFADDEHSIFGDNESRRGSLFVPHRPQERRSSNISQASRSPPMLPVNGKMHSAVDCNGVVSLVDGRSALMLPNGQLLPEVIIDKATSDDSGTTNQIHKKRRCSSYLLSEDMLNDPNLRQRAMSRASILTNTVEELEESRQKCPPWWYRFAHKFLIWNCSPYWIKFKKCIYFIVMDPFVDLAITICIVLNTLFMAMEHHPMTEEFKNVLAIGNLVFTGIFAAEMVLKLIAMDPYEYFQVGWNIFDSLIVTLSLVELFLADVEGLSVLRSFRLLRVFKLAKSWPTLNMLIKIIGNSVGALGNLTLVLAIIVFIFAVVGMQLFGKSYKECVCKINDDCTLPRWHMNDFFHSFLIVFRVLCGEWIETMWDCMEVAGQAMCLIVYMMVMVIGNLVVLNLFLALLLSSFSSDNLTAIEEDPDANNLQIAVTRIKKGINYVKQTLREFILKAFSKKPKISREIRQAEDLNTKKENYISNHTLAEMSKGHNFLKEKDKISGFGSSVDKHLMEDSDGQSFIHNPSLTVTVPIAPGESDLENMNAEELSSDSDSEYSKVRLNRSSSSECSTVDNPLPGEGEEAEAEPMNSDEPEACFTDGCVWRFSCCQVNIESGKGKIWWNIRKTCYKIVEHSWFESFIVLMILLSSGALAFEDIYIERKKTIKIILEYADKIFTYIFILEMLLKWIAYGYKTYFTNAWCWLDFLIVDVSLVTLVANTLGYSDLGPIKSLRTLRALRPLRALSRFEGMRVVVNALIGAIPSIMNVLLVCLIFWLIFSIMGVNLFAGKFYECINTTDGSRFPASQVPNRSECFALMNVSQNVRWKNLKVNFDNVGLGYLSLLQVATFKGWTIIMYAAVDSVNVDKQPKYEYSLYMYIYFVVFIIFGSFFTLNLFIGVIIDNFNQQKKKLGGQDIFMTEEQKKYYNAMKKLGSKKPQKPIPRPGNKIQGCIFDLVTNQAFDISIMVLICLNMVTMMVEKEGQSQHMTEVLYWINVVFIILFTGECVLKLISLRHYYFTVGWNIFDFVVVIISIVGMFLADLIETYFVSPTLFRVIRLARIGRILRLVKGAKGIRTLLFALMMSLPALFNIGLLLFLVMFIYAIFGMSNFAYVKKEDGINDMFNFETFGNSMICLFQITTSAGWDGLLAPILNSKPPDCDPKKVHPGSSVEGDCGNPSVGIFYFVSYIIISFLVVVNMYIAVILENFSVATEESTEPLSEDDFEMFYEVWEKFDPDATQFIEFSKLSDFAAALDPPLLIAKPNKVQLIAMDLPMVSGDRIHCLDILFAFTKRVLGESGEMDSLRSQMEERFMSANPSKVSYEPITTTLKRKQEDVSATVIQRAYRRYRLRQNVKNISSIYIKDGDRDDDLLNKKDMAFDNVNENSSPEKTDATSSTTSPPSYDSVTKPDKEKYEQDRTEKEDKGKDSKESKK

IC50	Structure (SMILES)
88.8 nM	C[C@@H](Oc1ncc(-c2cc(F)c(C(=O)NS(C)(=O)=O)cc2F)cc1Cl)c1ccc(F)cc1F [Example 574, 4-(5-chloro-6-((1R)-1-(2,4-difluorophenyl)ethoxy)-3-pyridinyl)-2,5-difluoro-N-(methylsulfonyl)benzamide]
31.3 nM	CS(=O)(=O)NC(=O)c1ccc(-c2cnc(Oc3cc(Cl)cc(Cl)c3)c(Cl)c2)c(OC2COC2)c1 [Example 422, 4-(5-chloro-6-(3,5-dichlorophenoxy)-3-pyridinyl)-N-(methylsulfonyl)-3-(3-oxetanyloxy)benzamide]
83.7 nM	Cc1cc(C(=O)NS(C)(=O)=O)c(F)cc1-c1cnc(Oc2c(F)ccc(Cl)c2F)c(Cl)c1 [Example 625, 4-(5-chloro-6-(3-chloro-2,6-difluorophenoxy)-3-pyridinyl)-2-fluoro-5-methyl-N-(methylsulfonyl)benzamide]
32.2 nM	Cc1ccc(Oc2ncc(-c3ccc(C(=O)NS(C)(=O)=O)cc3OC3COC3)cc2Cl)cc1Cl [Example 425, 4-(5-chloro-6-(3-chloro-4-methylphenoxy)-3-pyridinyl)-N-(methylsulfonyl)-3-(3-oxetanyloxy)benzamide]
84.6 nM	COc1cc(C(=O)NS(C)(=O)=O)ccc1-c1cnc(Oc2c(Cl)cccc2Cl)c(Cl)c1 [Example 581, 4-(5-chloro-6-(2,6-dichlorophenoxy)-3-pyridinyl)-3-methoxy-N-(methylsulfonyl)benzamide]
86.3 nM	Cc1cc(C(=O)NS(C)(=O)=O)c(F)cc1-c1cnc(O[C@H](C)c2ccccc2C(F)(F)F)c(Cl)c1 [Example 688, 4-(5-chloro-6-((1R)-1-(2-(trifluoromethyl)phenyl)ethoxy)-3-pyridinyl)-2-fluoro-5-methyl-N-(methylsulfonyl)benzamide, 4-(5-chloro-6-((1S)-1-(2-(trifluoromethyl)phenyl)ethoxy)-3-pyridinyl)-2-fluoro-5-methyl-N-(methylsulfonyl)benzamide]
94.1 nM	Cc1cc(C(=O)NS(C)(=O)=O)c(F)cc1-c1cnc(O[C@@H](c2ccccc2)C(F)(F)F)c(Cl)c1 [Example 684, 4-(5-chloro-6-((1S)-2,2,2-trifluoro-1-phenylethoxy)-3-pyridinyl)-2-fluoro-5-methyl-N-(methylsulfonyl)benzamide]
68.3 nM	Cc1ccc(Cl)c(Oc2ncc(-c3ccc(C(=O)NS(C)(=O)=O)cc3OC(F)F)cc2Cl)c1 [Example 462, 4-(5-chloro-6-(2-chloro-5-methylphenoxy)-3-pyridinyl)-3-(difluoromethoxy)-N-(methylsulfonyl)benzamide]
80 nM	COc1cc(C(=O)NS(C)(=O)=O)ccc1-c1cnc(Oc2cc(F)ccc2Cl)c(Cl)c1 [Example 371, 4-(5-chloro-6-(2-chloro-5-fluorophenoxy)-3-pyridinyl)-3-methoxy-N-(methylsulfonyl)benzamide]
98.9 nM	COc1ncc(Oc2ncc(-c3ccc(C(=O)NS(C)(=O)=O)cc3OC3COC3)cc2Cl)cc1Cl [Example 412, 4-(5-chloro-6-((5-chloro-6-methoxy-3-pyridinyl)oxy)-3-pyridinyl)-N-(methylsulfonyl)-3-(3-oxetanyloxy)benzamide]
79.2 nM	Cc1ccc(Oc2ncc(-c3ccc(C(=O)NS(C)(=O)=O)cc3OC(F)F)cc2Cl)cc1Cl [Example 449, 4-(5-chloro-6-(3-chloro-4-methylphenoxy)-3-pyridinyl)-3-(difluoromethoxy)-N-(methylsulfonyl)benzamide]
58.4 nM	COc1cc(C(=O)NS(C)(=O)=O)ccc1-c1cnc(Oc2cc(Cl)cc(C(F)(F)F)c2)c(Cl)c1 [Example 374, 4-(5-chloro-6-(3-chloro-5-(trifluoromethyl)phenoxy)-3-pyridinyl)-3-methoxy-N-(methylsulfonyl)benzamide]
91.9 nM	CS(=O)(=O)NC(=O)c1cc(Cl)c(-c2cnc(OCC3CCCC3)c(Cl)c2)cc1F [Example 600, 5-chloro-4-(5-chloro-6-(cyclopentylmethoxy)-3-pyridinyl)-2-fluoro-N-(methylsulfonyl)benzamide]
66.1 nM	COc1cc(C(=O)NS(C)(=O)=O)ccc1-c1cnc(Oc2ccc3c(c2)CCC3)c(Cl)c1 [Example 580, 4-(5-chloro-6-(2,3-dihydro-1H-inden-5-yloxy)-3-pyridinyl)-3-methoxy-N-(methylsulfonyl)benzamide]
54.6 nM	COc1cc(C(=O)NS(C)(=O)=O)ccc1-c1cnc(Oc2cc(Cl)ccc2C)c(Cl)c1 [Example 379, 4-(5-chloro-6-(5-chloro-2-methylphenoxy)-3-pyridinyl)-3-methoxy-N-(methylsulfonyl)benzamide]
87.5 nM	Cc1cc(C(=O)NS(C)(=O)=O)c(F)cc1-c1cnc(Oc2ccc(Cl)cc2C(F)(F)F)c(Cl)c1 [Example 679, 4-(5-chloro-6-(4-chloro-2-(trifluoromethyl)phenoxy)-3-pyridinyl)-2-fluoro-5-methyl-N-(methylsulfonyl)benzamide]

Structure (SMILES)	IC50
COc1cc(C(=O)NS(C)(=O)=O)ccc1-c1cnc(Oc2cccc(Cl)c2C)c(Cl)c1 [Example 579, 4-(5-chloro-6-(3-chloro-2-methylphenoxy)-3-pyridinyl)-3-methoxy-N-(methylsulfonyl)benzamide]	48.6 nM

Same assay, conditions: in-vitro Nav 1.7 PX data

IC50	Structure (SMILES)
78.9 nM	Cc1cc(Cl)cc(Cl)c1Oc1ncc(-c2cc(F)c(C(=O)NS(C)(=O)=O)cc2F)cc1C#N [Example 787, 4-(5-cyano-6-(2,4-dichloro-6-methylphenoxy)pyridin-3-yl)-2,5-difluoro-N-(methylsulfonyl)benzamide]
39.4 nM	CCS(=O)(=O)NC(=O)c1ccc(-c2cnc(Oc3c(F)ccc(F)c3F)c(Cl)c2)c(OC)c1 [Example 791, 4-(5-chloro-6-(2,3,6-trifluorophenoxy)-3-pyridinyl)-N-(ethylsulfonyl)-3-methoxybenzamide]
100 nM	COc1cc(C(=O)NS(C)(=O)=O)c(F)cc1-c1cnc(Oc2c(Cl)cc(F)cc2Cl)c(Cl)c1 [Example 737, 4-(5-chloro-6-(2,6-dichloro-4-fluorophenoxy)-3-pyridinyl)-2-fluoro-5-methoxy-N-(methylsulfonyl)benzamide]
104 nM	CC[C@@H](Oc1ncc(-c2cc(F)c(C(=O)NS(C)(=O)=O)cc2OC)cc1Cl)C(F)(F)F [Example 732, 4-(5-chloro-6-(((1R)-1-(trifluoromethyl)propyl)oxy)-3-pyridinyl)-2-fluoro-5-methoxy-N-(methylsulfonyl)benzamide, 4-(5-chloro-6-(((1S)-1-(trifluoromethyl)propyl)oxy)-3-pyridinyl)-2-fluoro-5-methoxy-N-(methylsulfonyl)benzamide]
55.3 nM	COc1cc(C(=O)NS(C)(=O)=O)c(F)cc1-c1cnc(O[C@H](C)Cc2ccccc2)c(Cl)c1 [Example 756, 4-(5-chloro-6-((1R)-1-methyl-2-phenylethoxy)-3-pyridinyl)-2-fluoro-5-methoxy-N-(methylsulfonyl)benzamide]
106 nM	COc1cc(C(=O)NS(C)(=O)=O)c(F)cc1-c1cnc(NCCC2CCCC2)c(Cl)c1 [Example 731, 4-(5-chloro-6-((2-cyclopentylethyl)amino)-3-pyridinyl)-2-fluoro-5-methoxy-N-(methylsulfonyl)benzamide]
99.3 nM	COc1cc(C(=O)NS(C)(=O)=O)c(F)cc1-c1cnc(Oc2ccc3ccccc3c2Cl)c(Cl)c1 [Example 717, 4-(5-chloro-6-((1-chloro-2-naphthalenyl)oxy)-3-pyridinyl)-2-fluoro-5-methoxy-N-(methylsulfonyl)benzamide]
98.6 nM	COc1cc(C(=O)NS(C)(=O)=O)c(F)cc1-c1cnc(OCC2(C)CCCCC2)c(Cl)c1 [Example 714, 4-(5-chloro-6-((1-methylcyclohexyl)methoxy)-3-pyridinyl)-2-fluoro-5-methoxy-N-(methylsulfonyl)benzamide]
85.3 nM	CCS(=O)(=O)NC(=O)c1ccc(-c2cnc(O[C@H]3C[C@H]4CC[C@@H]3C4)c(Cl)c2)c(OC)c1 [Example 792, 4-(6-((1R,2S,4S)-bicyclo[2.2.1]hept-2-yloxy)-5-chloro-3-pyridinyl)-N-(ethylsulfonyl)-3-methoxybenzamide]
95.5 nM	CC[C@H](Oc1ncc(-c2cc(F)c(C(=O)NS(C)(=O)=O)cc2OC)cc1Cl)C(F)(F)F [Example 768, 4-(5-chloro-6-(((1S)-1-(trifluoromethyl)propyl)oxy)-3-pyridinyl)-2-fluoro-5-methoxy-N-(methylsulfonyl)benzamide]
2430 nM	Cc1cc(C(=O)NS(C)(=O)=O)c(F)cc1-c1cnc(OCC(F)F)c(Cl)c1 [Example 808, 4-(5-chloro-6-(2,2-difluoroethoxy)-3-pyridinyl)-2-fluoro-5-methyl-N-(methylsulfonyl)benzamide]
37 nM	COc1cc(C(=O)NS(C)(=O)=O)c(F)cc1-c1cnc(Oc2ccc(Cl)cc2Cl)c(Cl)c1 [Example 738, 4-(5-chloro-6-(2,4-dichlorophenoxy)-3-pyridinyl)-2-fluoro-5-methoxy-N-(methylsulfonyl)benzamide]
141 nM	Cc1cc(C(=O)NS(C)(=O)=O)c(F)cc1-c1ccc(CC2CC2)c(Cl)c1 [Example 813, 3′-chloro-4′-(cyclopropylmethyl)-5-fluoro-2-methyl-N-(methylsulfonyl)-4-biphenylcarboxamide]
73.2 nM	CS(=O)(=O)NC(=O)c1cc(OC(F)F)c(-c2cnc(O[C@@H]3C[C@H]4CC[C@H]3C4)c(Cl)c2)cc1F [Example 783, 4-(6-((1S,2R,4S)-bicyclo[2.2.1]hept-2-yloxy)-5-chloro-3-pyridinyl)-5-(difluoromethoxy)-2-fluoro-N-(methylsulfonyl)benzamide]

Structure (SMILES)	IC50
Cc1cc(C(=O)NS(C)(=O)=O)c(F)cc1-c1cnc(OC(C)(C)C)c(Cl)c1 [Example 816, 4-(6-tert-butoxy-5-chloro-3-pyridinyl)-2-fluoro-5-methyl-N-(methylsulfonyl)benzamide]	156 nM

The molecules below were run against human Nav 1.5 (Homo sapiens (Human), UniProt Q14524) (assay: Nav 1.5 IonWorks Quattro (IWQ) in vitro assay). Conditions: human, HEK 293 cells stably transfected with human Nav 1.5; in-vitro Nav 1.5 IWQ data; read-out: NAV 1.5 IWQ (IC50).
Type: cell-based
Description: Nav 1.7 or Nav 1.5 Ion Works Quattro (IWQ) In Vitro Assay
HEK 293 Cells stably transfected with either human Nay 1.7 or human Nay 1.5 were recorded in population patch-clamp mode with the IonWorks® Quattro automated electrophysiology system in accordance with the manufacturer's specifications (Molecular Devices, LLC, Sunnyvale, Calif.). Sodium channel currents were measured in response to a train of depolarizations that induced successively greater inactivation.
Cells were held at −110 mV for three seconds (Nav 1.7) or half a second (Nav 1.5) from a holding voltage of −15 mV, then put through a series of 26 pulses of 150 msec duration to −20 mV at a frequency of 5 Hz. Cells were then left unclamped for a period of 3 to 8 minutes while a single concentration of test compound was added. Cells were then reclamped and put through the same voltage protocol. Current at the end of the 26th pulse to −20 mV was subtracted from the peak current evoked by the 26th pulse to −20 mV to correct for leak current. Percent block was calculated for each concentration in duplicate, and IC50 curves were fitted to percent block as a function of concentration.

human Nav 1.5, sequence (Q14524 whole entry): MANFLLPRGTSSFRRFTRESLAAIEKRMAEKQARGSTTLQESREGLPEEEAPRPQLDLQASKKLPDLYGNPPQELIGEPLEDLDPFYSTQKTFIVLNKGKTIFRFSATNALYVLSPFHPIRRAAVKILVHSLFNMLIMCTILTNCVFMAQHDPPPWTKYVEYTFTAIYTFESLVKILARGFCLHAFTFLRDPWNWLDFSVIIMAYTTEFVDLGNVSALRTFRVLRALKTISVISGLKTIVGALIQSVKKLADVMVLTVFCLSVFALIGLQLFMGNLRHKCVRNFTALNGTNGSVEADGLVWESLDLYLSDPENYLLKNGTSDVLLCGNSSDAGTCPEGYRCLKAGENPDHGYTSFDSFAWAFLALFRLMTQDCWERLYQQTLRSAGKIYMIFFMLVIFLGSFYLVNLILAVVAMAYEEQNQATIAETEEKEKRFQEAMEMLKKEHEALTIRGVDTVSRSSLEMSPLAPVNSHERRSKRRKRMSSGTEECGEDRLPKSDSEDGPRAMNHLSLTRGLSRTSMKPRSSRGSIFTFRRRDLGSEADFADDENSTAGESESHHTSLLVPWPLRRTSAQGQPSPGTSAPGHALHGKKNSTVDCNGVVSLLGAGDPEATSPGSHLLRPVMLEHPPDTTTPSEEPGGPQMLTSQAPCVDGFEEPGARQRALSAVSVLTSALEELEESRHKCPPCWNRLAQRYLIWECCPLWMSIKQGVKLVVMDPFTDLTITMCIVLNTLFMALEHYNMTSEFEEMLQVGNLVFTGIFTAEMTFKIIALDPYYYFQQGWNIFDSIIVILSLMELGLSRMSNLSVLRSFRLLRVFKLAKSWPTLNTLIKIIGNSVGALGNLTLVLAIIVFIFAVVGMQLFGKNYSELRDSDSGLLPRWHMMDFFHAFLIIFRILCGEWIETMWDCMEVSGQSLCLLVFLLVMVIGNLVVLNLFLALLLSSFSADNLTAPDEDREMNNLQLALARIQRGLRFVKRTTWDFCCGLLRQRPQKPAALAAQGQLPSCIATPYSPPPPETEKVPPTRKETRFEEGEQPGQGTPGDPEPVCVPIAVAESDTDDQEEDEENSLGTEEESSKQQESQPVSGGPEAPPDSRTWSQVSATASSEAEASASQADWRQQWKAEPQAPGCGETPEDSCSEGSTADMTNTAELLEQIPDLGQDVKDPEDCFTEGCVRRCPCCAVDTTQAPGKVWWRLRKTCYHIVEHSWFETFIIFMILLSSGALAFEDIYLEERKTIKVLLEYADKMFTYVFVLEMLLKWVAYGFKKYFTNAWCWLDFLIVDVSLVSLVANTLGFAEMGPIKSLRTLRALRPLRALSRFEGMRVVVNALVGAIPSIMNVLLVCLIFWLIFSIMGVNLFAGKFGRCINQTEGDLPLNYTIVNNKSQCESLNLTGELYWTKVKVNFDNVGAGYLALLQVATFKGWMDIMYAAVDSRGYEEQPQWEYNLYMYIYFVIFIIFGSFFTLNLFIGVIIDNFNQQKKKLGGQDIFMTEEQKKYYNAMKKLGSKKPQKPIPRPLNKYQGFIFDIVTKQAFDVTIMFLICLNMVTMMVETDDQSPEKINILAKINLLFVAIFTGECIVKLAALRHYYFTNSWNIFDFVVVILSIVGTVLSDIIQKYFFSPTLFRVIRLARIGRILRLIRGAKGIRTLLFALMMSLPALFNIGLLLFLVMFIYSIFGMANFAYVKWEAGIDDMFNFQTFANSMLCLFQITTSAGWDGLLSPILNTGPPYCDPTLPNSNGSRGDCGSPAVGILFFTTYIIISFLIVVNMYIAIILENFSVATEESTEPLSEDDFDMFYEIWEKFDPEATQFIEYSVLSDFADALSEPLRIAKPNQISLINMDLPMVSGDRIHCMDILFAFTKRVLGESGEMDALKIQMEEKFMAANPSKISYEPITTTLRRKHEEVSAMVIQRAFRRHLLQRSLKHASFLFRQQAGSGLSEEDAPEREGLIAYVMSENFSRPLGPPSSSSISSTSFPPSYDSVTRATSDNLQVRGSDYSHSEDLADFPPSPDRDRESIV

Structure (SMILES)	IC50
C[C@@](Oc1ncc(-c2cc(F)c(C(=O)NS(C)(=O)=O)cc2F)cc1Cl)(c1ccccc1)C(F)(F)F (single isomer, unassigned) [Example 804]	> 3000 nM
C[C@](Oc1ncc(-c2cc(F)c(C(=O)NS(C)(=O)=O)cc2F)cc1Cl)(c1ccccc1)C(F)(F)F (single isomer, unassigned) [Example 805]	> 3000 nM
